“Also recorded” adds a separate entry of the source.
What was measured:
BACE1 cleavage of NRG1 = target: T1, BACE1 cleavage of NRG1 (Homo sapiens, UniProt P56817); assay: SEAP-NRG assay; assay type: cell-based
T1 construct: with or without full-length wild-type BACE1; expressed in transfected cells; host or cells: HEK293
Experimental: A cDNA construct encoding a human placental secreted alkaline phosphatase (SEAP)-NRG1 (pAPtag5-NRG1-β1) fusion protein was transfected in human embryonic kidney (HEK293) cells in a 6-well format with or without full-length wild-type BACE1 using Lipofectamine 2000 (Invitrogen) as described previously [27]. After transfection, the medium was replaced with DMEM containing the test compound at 10, 5, 1, 0.1, and 0.01 ​μM as well as 10 ​% heat-inactivated fetal bovine serum (FBS), then incubated for 24 ​h. SEAP activity was measured in the conditioned medium.

BACE2 = target: T2, BACE2 (Homo sapiens, UniProt Q9Y5Z0); assay: BACE2 activity assay; assay type: biochemical
T2 construct: purchased R&D Systems 4097-AS
T2 sequence (Q9Y5Z0 63-518): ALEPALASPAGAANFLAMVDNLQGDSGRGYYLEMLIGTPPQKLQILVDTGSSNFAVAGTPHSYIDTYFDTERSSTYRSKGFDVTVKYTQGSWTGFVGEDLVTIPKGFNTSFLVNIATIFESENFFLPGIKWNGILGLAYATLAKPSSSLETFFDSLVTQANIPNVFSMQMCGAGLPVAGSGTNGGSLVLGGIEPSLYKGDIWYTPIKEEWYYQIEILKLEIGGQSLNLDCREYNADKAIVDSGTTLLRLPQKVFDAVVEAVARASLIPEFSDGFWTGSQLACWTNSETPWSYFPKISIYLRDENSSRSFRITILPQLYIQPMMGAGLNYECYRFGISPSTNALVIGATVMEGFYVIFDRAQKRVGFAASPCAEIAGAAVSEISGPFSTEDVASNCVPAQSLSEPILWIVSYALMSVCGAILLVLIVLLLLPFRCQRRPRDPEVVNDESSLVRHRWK
Experimental: The effects of candidate ASBIs on BACE2 activity was assessed using the R&D Systems BACE2 activity assay kit (Catalog #: 4097-AS and ES010) formatted from to the manufacturers. For the assay, 4 μL of assay buffer was added to each well, followed by 2 μL of BACE2 diluted in assay buffer to 10 ng/µL.
Then, 2 μL of inhibitor, at the appropriate concentrations were added to the wells and incubated for 30 minutes at room temperature. For all dilutions of inhibitor, drug stock solutions of 10 mM in DMSO were diluted to 50 μM in water; subsequent dilutions were in 0.5% DMSO. Afterwards, 2 μL of fluorogenic BACE2 substrate, diluted to 50 μM in assay buffer, were added to each well, after which the signal generated was read every 30 minutes at 25 °C for 2 hr (Fig S2).
FAH65 and its enantiomers at 10 mM in 100% DMSO was diluted in PBS pH 7.4 to 100, 10, 1, and 0.1 µM; plus, a vehicle-only control. The solutions were incubated at 37 °C for 90 min and centrifuged at 16K x g for 5 min. An aliquot of each supernatant was analyzed by LC-MS/MS. A standard curve was generated by plotting the known amount of analyte per standard in DMSO vs. chromatographic peak […]
Kinetic solubility (µM) was calculated using the trendline equation with maximum chromatographic peak area observed in the aqueous sample. (Table S3)
Liver microsome stability assay […]

[1] = Pilot PK of FAH65 vs. verubecestat in rats; assay type: in vivo, rat; settings: oral gavage, 30 mg/kg
[2] = PK of FAH65E(-) in ApoE4-TR:5xFAD mice; assay type: in vivo, mouse; settings: 30 mkd oral, from brain Fu
Experimental: A PK/PD study of FAH65E(-) hydrochloride was performed using ApoE4-TR:5xFAD mice that express APOE4 under the control of the endogenous mouse APOE promoter crossed to 5xFAD mice (Tg6799) which co-express five FAD mutations (APP K670 N/M671L + I716V + V717I and PS1 M146L + L286V) under the control of the neuron-specific mouse Thy-1 promoter. The resulting mice, on a 97 % C57Bl/6J and 3 % SJL background, are homozygous for APOE4 and hemizygous for the 5XFAD transgenes. Both male and female mice 6–8 months of age were used. Mice received two doses (a.m. and p.m.) of 30 mg/kg FAH65E(-) by oral gavage on day 1; on day 2, after a single dose (a.m.) mice were euthanized at 1, 2, 4 and 6 h, n = 3 per time point. FAH65 and sAPPβ levels in brain were determined in brain tissue by LC-MS (see Supplementary Methods) and ELISA , respectively.

eAPP = eAPP (Homo sapiens, UniProt P05067); assay: APP binding by surface plasmon resonance (SPR); settings: SPR, in words
eAPP, sequence (P05067 18-701): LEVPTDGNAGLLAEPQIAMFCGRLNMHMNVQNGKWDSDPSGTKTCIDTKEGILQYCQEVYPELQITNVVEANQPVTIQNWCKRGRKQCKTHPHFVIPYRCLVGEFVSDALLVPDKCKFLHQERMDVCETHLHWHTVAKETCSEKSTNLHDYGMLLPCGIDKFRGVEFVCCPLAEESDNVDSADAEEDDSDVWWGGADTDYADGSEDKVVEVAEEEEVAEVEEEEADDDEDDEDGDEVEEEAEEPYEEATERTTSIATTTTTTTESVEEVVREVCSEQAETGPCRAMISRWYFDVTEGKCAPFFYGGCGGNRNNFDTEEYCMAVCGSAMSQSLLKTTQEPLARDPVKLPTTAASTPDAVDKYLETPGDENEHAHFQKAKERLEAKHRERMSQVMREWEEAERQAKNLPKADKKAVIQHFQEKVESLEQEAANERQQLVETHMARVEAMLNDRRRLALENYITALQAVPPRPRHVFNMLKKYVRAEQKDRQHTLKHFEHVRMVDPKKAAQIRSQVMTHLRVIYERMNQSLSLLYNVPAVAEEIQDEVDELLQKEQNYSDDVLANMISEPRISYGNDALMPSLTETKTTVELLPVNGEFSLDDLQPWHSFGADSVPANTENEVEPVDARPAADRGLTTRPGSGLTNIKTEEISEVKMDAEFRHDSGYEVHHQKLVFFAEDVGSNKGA
Experimental: The interaction of FAH3, 17 and 65 were evaluated using the SPR protocol described previously in Descamps et al., [26].
For these pilot experiments eAPP as described in Descamps et al (26) is crosslinked to a the CM5 Biacore chip. FAH3 at various concentration was used in the flow through the chip, and the plasmon resonance signal was determined using a Biacore T100. The raw data uncorrected for contribution of running buffer is fit to equilibrium binding data and corrected for the contribution of the running buffer to
For FAH17 and FAH65-APP binding was determined using SPR to determine competition with BSA that non-specifically binds to the eAPP-Biacore chip.

T1 sequence (P56817 46-501): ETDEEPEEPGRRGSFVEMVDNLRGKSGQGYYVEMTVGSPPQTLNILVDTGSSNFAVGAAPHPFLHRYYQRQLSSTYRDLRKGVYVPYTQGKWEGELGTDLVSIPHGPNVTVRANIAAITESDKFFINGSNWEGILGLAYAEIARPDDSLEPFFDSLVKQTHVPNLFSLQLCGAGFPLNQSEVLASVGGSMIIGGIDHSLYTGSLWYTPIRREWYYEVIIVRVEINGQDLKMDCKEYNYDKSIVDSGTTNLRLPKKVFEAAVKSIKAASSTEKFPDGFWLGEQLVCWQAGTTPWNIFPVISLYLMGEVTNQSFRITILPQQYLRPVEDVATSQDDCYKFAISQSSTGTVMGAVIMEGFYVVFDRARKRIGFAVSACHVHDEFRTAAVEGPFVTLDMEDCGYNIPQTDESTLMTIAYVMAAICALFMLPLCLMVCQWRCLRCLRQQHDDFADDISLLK

EC50 (BACE1 cleavage of NRG1; SEAP-NRG1, HEK293): > 10 µM
IC50 (BACE1 cleavage of NRG1; Table S1): 2 µM
substrate selectivity IC50 NRG1/IC50 APP (BACE1 cleavage of NRG1; ratio): > 200
IC50 (BACE2): > 1 µM
Cmax ([1]; both sexes, Sprague-Dawley, rat, brain): 182 ng/g
time of brain Cmax [1]: 2 h
Unbound brain concentration at Cmax [2]: 9.6 nM
binding to eAPP (eAPP): relative to BSA but no KD
SMILES: Cc1cc(C2(c3cccc(-c4cncnc4)c3)N=C(N)N(C)C2=O)ccc1OC(F)F (stereo not drawn) [FAH65]
inhibition of BACE2 activity (BACE2; in words): no inhibition; also recorded: did not inhibit
